In general, IC50 refers to the concentration that gives 50% inhibition. The term solubility denotes the dissolved amount per volume that the medium holds.

The target of one data set is human ATM (Homo sapiens (Human), UniProt Q13315). Put plainly: Enzymatic ATM assay (RBC FRET enzyme assay). Format: biochemical. The note with it: substrate p53, 5-point dilution starting at 10 μM. How it is done:
The inhibitory activity on the isolated ATM kinase was determined by a commercial supplier (Reaction Biology Corp., PA, US) using an activity based FRET assay. Compounds were therefore first pre-incubated with human ATM before substrate (p53) and ATP were added to initiate the phosphorylation reaction. After a given time, the kinase reaction was stopped and the amount of phosphorylated substrate was quantified using standard FRET detection methods. […] Detailed assay conditions and parameters can be requested from the commercial supplier.

Data set [1] concerns kras^G12D; mycOE; p53^−/− murine pancreatic cancer cells (KMP53). Put plainly: KMP53 cell assay (XTT cell viability with Etoposide). The note with it: Mus musculus, 4 h pre-treatment, then 300 nM Etoposide, 46 h. Format: cell-based. The text has this: (§1) A selection of compounds was screened in a cellular assay system in two different cancer cell lines. Therefore, the cells were challenged with a generally non-cytotoxic concentration of Etoposid to induce DNA double strand breaks and the activation of the ATM pathway. The cells were further treated with different concentrations of the final compounds and viability of the cells was quantified using a standard XTT cell viability protocol. The principle of this assay lies in the fact that only alive and thus metabolically active cells are able to catalyze the reduction of XTT ((2,3-bis-(2-methoxy-4-nitro-5-sulfophenyl)-2H-tetrazolium-5-carboxanilide) by NADH from mitochondria, into formazan. The formazan product can be then detected using an absorbance-based microplate reader. The absorbance intensity measured in each well correlates to cell viability.
(§2) In brief, kras^G12D; mycOE; p53^−/− murine pancreatic cancer cells (KMP53) and Panc-1 human pancreatic ductal carcinoma cells were seeded in 96-well plates and left to attach overnight. The following day, cells were treated with serial dilutions of compound or DMSO in triplicates. The cells were first pre-treated for 4 hours with inhibitor and then 300 nM of Etoposide was added to each well. Cells were then grown under normal conditions (37° C., 95% air, 5% CO2) for 46 h. Following the incubation period, XTT solution was added to the cells containing 1 mg/ml XTT and 25 μM phenazine methosulfate (PMS) diluted in full culture medium. Cells were incubated in normal conditions for two more hours. For the determination of cell viability, absorbance at 450 nm was measured for each well. Absorbance values were then normalized to DMSO control and expressed as percentages of viability. Using software GraphPad Prism, the values were fitted in a nonlinear response curve and the IC50 values were calculated.
For orientation: Tetrazolium assays rely on reduction of a dye to a coloured formazan, in cell work by metabolically active cells.

Data set [2] deals with Panc-1 human pancreatic ductal carcinoma cells. As to the kind of experiment: Panc1 cell assay (XTT cell viability with Etoposide). Format: cell-based. The note with it: 4 h pre-treatment, then 300 nM Etoposide, 46 h.
Description: as §1, §2

The nature of a further data set: Solubility in DMSO. Conditions: organic solvent or mixture, free base. Format: physicochemical. As to the method:
In a screw-top reaction vial, 41 mg (25) (0.1 mmol) and 1 mg tBu3P Pd G3 (1.5 mol %) were suspended in 2.4 ml degassed dioxane under argon atmosphere. Subsequently were added 40 mg (27) (0.14 mmol) as solution in dioxane and 0.6 ml of an aqueous 0.5M K3PO4 solution (0.3 mmol) via syringe. The reaction vial was sealed and heated to 50° C. heating block temperature for about 2 hours. TLC indicated complete conversion at that point and the reaction was quenched by dilution with EtOAc and brine. The phases were separated and the aqueous phase was further extracted with EtOAc (3×15 ml) and subsequently with DCM (4×15 ml). The combined extracts were washed with brine, dried and evaporated. The residue was purified via flash chromatography (DCM/MeOH+2N NH3 2-10%) to obtain 36 mg (74%) of the title substance as white solid. […] Therefore, it was converted to the HCl salt by dissolution in DCM/MeOH, acidification with HCl in EtOH and subsequent concentration of the solution. […]

Sequence of human ATM (Q13315 whole entry): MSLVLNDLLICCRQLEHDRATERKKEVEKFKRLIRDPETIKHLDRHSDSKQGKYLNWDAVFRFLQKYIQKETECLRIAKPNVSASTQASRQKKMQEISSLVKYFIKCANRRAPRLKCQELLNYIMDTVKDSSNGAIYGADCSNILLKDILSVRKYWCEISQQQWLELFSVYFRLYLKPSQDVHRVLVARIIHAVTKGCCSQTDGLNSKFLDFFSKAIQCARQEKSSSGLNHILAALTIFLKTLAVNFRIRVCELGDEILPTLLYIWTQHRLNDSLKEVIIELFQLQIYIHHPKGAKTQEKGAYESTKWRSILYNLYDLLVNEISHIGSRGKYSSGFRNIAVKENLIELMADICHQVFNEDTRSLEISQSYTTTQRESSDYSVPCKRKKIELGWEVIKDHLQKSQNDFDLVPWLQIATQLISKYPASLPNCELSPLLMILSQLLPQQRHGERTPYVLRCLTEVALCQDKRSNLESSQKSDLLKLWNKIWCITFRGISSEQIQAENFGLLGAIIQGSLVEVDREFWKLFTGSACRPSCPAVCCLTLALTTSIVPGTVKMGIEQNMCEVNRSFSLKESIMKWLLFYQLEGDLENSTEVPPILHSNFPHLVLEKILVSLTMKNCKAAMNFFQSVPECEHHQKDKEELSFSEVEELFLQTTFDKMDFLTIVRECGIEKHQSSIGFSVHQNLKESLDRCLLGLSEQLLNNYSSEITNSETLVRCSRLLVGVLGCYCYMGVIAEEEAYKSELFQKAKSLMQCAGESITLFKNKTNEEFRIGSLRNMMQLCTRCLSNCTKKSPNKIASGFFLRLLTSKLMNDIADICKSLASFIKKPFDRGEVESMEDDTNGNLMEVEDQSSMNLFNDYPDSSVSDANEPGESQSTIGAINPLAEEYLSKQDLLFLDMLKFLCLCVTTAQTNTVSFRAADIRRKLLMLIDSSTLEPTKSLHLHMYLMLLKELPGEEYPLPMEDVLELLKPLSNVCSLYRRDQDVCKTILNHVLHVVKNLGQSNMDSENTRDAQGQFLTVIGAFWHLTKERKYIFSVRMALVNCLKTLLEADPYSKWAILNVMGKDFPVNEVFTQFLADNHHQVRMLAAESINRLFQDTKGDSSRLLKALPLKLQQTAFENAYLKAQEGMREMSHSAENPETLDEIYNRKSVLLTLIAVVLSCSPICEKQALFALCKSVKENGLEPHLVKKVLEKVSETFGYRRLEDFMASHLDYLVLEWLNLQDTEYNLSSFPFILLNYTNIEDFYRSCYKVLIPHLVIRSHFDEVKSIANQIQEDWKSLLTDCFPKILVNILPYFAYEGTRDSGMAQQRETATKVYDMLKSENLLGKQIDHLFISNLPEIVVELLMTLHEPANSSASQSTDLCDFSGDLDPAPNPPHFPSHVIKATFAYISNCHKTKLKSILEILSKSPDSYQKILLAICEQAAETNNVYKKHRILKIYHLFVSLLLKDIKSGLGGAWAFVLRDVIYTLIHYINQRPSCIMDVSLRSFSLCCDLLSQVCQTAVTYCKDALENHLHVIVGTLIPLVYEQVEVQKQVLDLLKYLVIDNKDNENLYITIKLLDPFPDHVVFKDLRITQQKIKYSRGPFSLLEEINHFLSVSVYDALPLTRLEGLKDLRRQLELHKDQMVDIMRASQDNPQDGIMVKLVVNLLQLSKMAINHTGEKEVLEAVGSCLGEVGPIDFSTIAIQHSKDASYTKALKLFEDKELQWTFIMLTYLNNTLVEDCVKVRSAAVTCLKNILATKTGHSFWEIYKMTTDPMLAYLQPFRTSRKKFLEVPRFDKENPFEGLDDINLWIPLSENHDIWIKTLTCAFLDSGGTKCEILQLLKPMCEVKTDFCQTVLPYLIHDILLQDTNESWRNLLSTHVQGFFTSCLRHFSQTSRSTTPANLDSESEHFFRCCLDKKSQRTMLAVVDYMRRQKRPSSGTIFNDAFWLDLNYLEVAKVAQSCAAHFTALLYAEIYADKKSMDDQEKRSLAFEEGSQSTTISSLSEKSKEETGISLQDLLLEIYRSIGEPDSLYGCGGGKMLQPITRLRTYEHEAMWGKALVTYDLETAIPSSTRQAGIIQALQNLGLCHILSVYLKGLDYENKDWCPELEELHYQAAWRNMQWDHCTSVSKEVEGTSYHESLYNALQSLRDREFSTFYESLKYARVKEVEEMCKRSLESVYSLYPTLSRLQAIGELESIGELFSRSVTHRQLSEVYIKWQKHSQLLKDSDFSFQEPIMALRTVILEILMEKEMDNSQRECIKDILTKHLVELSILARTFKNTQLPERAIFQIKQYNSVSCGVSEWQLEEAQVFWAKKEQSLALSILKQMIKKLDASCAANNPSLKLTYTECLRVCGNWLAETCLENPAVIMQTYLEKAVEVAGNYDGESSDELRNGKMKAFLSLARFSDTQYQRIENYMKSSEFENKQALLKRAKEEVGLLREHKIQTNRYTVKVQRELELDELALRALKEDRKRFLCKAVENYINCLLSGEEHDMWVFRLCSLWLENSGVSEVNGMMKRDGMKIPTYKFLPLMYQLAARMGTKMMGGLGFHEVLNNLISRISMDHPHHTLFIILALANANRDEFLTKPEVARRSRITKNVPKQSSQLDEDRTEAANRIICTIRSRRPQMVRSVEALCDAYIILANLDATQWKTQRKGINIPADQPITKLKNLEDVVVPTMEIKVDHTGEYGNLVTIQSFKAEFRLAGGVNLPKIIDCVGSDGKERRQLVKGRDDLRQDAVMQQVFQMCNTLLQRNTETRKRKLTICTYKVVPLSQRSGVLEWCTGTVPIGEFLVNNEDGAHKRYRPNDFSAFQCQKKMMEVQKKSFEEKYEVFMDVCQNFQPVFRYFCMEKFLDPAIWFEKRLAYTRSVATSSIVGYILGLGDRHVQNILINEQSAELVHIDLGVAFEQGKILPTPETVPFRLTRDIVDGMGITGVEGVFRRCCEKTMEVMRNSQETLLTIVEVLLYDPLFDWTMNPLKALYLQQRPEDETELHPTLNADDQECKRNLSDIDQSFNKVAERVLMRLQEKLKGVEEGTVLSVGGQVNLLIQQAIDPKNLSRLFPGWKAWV

With `COCCn1c(=O)n(C)c2cnc3ccc(-c4ccc(NC(=O)NCCN(C)C)cc4F)cc3c21` [Ex. 27, 1-(2-(Dimethylamino)ethyl)-3-(3-fluoro-4-(1-(2-methoxyethyl)-3-methyl-2-oxo-2,3-dihydro-1H-imidazo[4,5-c]quinolin-8-yl)phenyl)urea], the IC50 against human ATM is less than 1 nM; in data set [1] it was 4790 nM; in data set [2], 1 nM.
As for `CN(C)CCNC(=O)Nc1ccc(-c2ccc3ncc4c(c3c2)n(C2CCOCC2)c(=O)n4C)cn1` [Ex. 7, 1-(2-(Dimethylamino)ethyl)-3-(5-(3-methyl-2-oxo-1-(tetrahydro-2H-pyran-4-yl)-2,3-dihydro-H-imidazo[4,5-c]quinolin-8-yl)pyridin-2-yl)urea], the figures for the IC50 (against human ATM; in data set [1]) were less than 1 nM and 2500 nM, respectively. In the data set “Solubility in DMSO”, the solubility was less than 10 mM.
With `COCCn1c(=O)n(C)c2cnc3ccc(-c4ccc(NC(=O)NCCN(C)C)c(F)c4)cc3c21` [Ex. 28, 1-(2-(Dimethylamino)ethyl)-3-(2-fluoro-4-(1-(2-methoxyethyl)-3-methyl-2-oxo-2,3-dihydro-1H-imidazo[4,5-c]quinolin-8-yl)phenyl)urea], the half-maximal inhibitory concentration (IC50) on human ATM is less than 1 nM; in data set [1], 2000 nM; in data set [2] it was 1 nM.

The values above are taken from patent US20230348462A1, “IMIDAZO[4,5-C]QUINOLINE COMPOUNDS AND THEIR USE AS ATM KINASE INHIBITORS” (Deutsches Krebsforschungszentrum, priority 2020, published 2023).
